# Values quoted from earlier work, collected in patent publication US20120095034A1, “PIPERIDINE DERIVATIVES USEFUL AS OREXIN RECEPTOR ANTAGONISTS” (priority 2007, published 2012).
# No end group written: not given here.
# Test system: rats
# Settings: central administration at the onset of the normal sleep period, rat
substance,measurement,value
"orexin-A: ligand for the orexin-1 receptor; an agonist of the orexin receptors (QPLPDCCRQKTCSCRLYELLHGAGNHAAGILTL; ends and bridges not checked; cysteine pairing not given here; UniProt O43612 34-66, looked up)",arousal,dose-related increase in arousal
